Reference: patent US8318950B2, “N-acyl amino acid derivatives, a method for the preparation thereof, a pharmaceutical composition and use thereof as anti-allergic, anti-inflammatory and hypolipidemic agents” (Otkrytoe Aktsionernoe Obschestvo-Otechestvennye Lekarstva, priority 2005, dated 2012)

Key:
[1] = system: endogenous hypercholesterolemia in guinea pigs; assay: Model of endogenous hypercholesterolemia in guinea pigs (fat loading); format: in vivo, guinea pig; design: Serum total cholesterol / Serum total triglyceride levels: unit not given here; conditions: for Serum total cholesterol / Serum total triglyceride levels: fat loading + compound 500 μg/kg orally
Protocol: The study was carried out on male guinea pigs (Aguti line) weighing 304±25 g. The experiment lasted 31 days. The control group included 6 guinea pigs (intact animals). The compounds studied were administered from day 1 of the experiment (from day 1 of administering fat loading).
The animals of experimental groups received orally for 31 days a compound studied and fat loading. The compound studied at doses indicated below was administered in the form of an aqueous solution (0.5 ml per an animal); fat loading (a mixture of porcine fat and preliminary heated corn oil at 4:1 ratio by volume, at the rate of 5 ml/kg weight 0.5 h post administering the substance studied.
1) “control”—intact animals;
2) “fat”—animals that received fat loading only
3) “compound IV”—animals that received fat loading+compound IV at dose 500 μg/kg body weight;
4) “compound V”—animals that received fat loading+compound V at dose 500 μg/kg body weight.
Statistical processing was carried out using a mono-factorial analysis of variance.

[2] = system: endogenous hypercholesterolemia in guinea pigs; assay: as above; format: in vivo, guinea pig; conditions: during 20 days, doses from 50 to 1,500 μg/kg
[3] = day 31, blood serum, 500 μg/kg orally (Table 24)
[4] = day 31, blood serum, 500 μg/kg orally (Table 25)

O=C(O)CCCC(=O)N[C@@H](Cc1c[nH]cn1)C(=O)O [Compound IV, N^α-glutaryl-L-histidine]
Serum total cholesterol ([1]; Day 28): 55.5 ± 6.3
Serum total triglyceride levels ([1]; Day 28): 66.8 ± 6.7
Serum total cholesterol ([1]; Day 31): 49.2 ± 3.9
Serum total triglyceride levels ([1]; Day 31): 69.0 ± 13.4
lowered LDL cholesterol ([1]; by day 31 of the experiment): 37.7%
lowered total cholesterol level ([1]; by day 31 of the experiment): 33.9%
Cholesterol, LDL [1, 3]: 42.1 ± 3.5 mg/100 ml
Cholesterol, Total [1, 3]: 49.2 ± 3.9 mg/100 ml
Cholesterol, VLDL [1, 3]: 3 ± 0.71 mg/100 ml
Triglycerides, LDL [1, 4]: 29.6 ± 2.4 mg/100 ml
Triglycerides, Total [1, 4]: 69 ± 13.4 mg/100 ml
Triglycerides, VLDL [1, 4]: 33.2 ± 12.3 mg/100 ml
lowering total cholesterol level at different doses (FIG. 1) [2]: practically similarly effective in lowering total cholesterol level
